Results reported in patent publication US10370387B2, “Tricyclic fused thiophene derivatives as JAK inhibitors” (Incyte Corporation, priority 2012, dated 2019).

system: human JAK1; test: In vitro JAK kinase assay (HTRF, phosphorylation of biotinylated peptide), JAK1; assay type: biochemical; details: ratio of JAK2 IC50 to JAK1 IC50, 1 mM ATP
Procedure: (§1) Compounds herein were tested for inhibitory activity of JAK targets according to the following in vitro assay described in Park et al., Analytical Biochemistry 1999, 269, 94-104. The catalytic domains of human JAK1 (a.a. 837-1142), JAK2 (a.a. 828-1132) and JAK3 (a.a. 781-1124) were expressed using baculovirus in insect cells and purified. The catalytic activity of JAK1, JAK2 or JAK3 was assayed by measuring the phosphorylation of a biotinylated peptide. The phosphorylated peptide was detected by homogenous time resolved fluorescence (HTRF). IC50s of compounds were measured for each kinase in the 40 μL reactions that contain the enzyme, ATP and 500 nM peptide in 50 mM Tris (pH 7.8) buffer with 100 mM NaCl, 5 mM DTT, and 0.1 mg/mL (0.01%) BSA. For the 1 mM IC50 measurements, ATP concentration in the reactions was 1 mM. Reactions were carried out at room temperature for 1 hour and then stopped with 20 μL 45 mM EDTA, 300 nM SA-APC, 6 nM Eu-Py20 in assay buffer (Perkin Elmer, Boston, Mass.). Binding to the Europium labeled antibody took place for 40 minutes and HTRF signal was measured on a PHERA star plate reader (BMG, Cary, N.C.). The Example compounds were each tested in the Example A assay (see Table 1 for data for the compounds of the examples as tested by the assay of Example A at 1 mM ATP).

Compound	JAK2/JAK1
Cc1nn2cnc3ccsc3c2c1-c1ccc(CC#N)cc1 [Example 46, [4-(8-Methylpyrazolo[1,5-c]thieno[2,3-e]pyrimidin-9-yl)phenyl]acetonitrile]	>3
[(1R,2S,4S)-4-(2-Methyl-1H-imidazo[4,5-d]thieno[3,2-b]pyridin-1-yl)-2-hydroxycyclohexyl]acetonitrile and [(1S,2R,4R)-4-(2-methyl-1H-imidazo[4,5-d]thieno[3,2-b]pyridin-1-yl)-2-hydroxycyclohexyl]acetonitrile [41 (first peak)]	>10
C[C@@H](O)c1nc2cnc3ccsc3c2n1C1CCN(CC#N)CC1.O=C(O)C(F)(F)F [Example 61, (4-{2-[(1R)-1-Hydroxyethyl]-1H-imidazo[4,5-d]thieno[3,2-b]pyridin-1-yl}piperidin-1-yl)acetonitrile trifluoroacetate]	>10
CCC(=O)NC[C@H]1CC[C@H](n2c(CC#N)nc3cnc4ccsc4c32)CC1 [Example 89, N-({trans-4-[2-(Cyanomethyl)-1H-imidazo[4,5-d]thieno[3,2-b]pyridin-1-yl]cyclohexyl}methyl)propanamide]	>10
C[C@@H](O)c1nc2cnc3ccsc3c2n1C1CCNCC1F (stereo partly drawn) [9 (2nd peak), (1R)-1-[1-(3-Fluoropiperidin-4-yl)-1H-imidazo[4,5-d]thieno[3,2-b]pyridin-2-yl]ethanol]	>10
CC(CC(=O)N1CCC[C@H](n2c([C@@H](C)O)nc3cnc4ccsc4c32)C1)c1ccccc1 (stereo partly drawn) [Example 55, (1R)-1-{1-[(3S)-1-(3-Phenylbutanoyl)piperidin-3-yl]-1H-imidazo[4,5-d]thieno[3,2-b]pyridin-2-yl}ethanol]	>10
CCc1nc2cnc3ccsc3c2n1[C@@H]1CC[C@@H](CC#N)[C@@H](O)C1 (mixture of isomers) [Example 35]	>10
C[C@@H](O)c1nc2cnc3ccsc3c2n1[C@H]1CCCN(C(=O)CC#N)C1.O=C(O)C(F)(F)F [Example 51, 3-((3S)-3-{2-[(1R)-1-Hydroxyethyl]-1H-imidazo[4,5-d]thieno[3,2-b]pyridin-1-yl}piperidin-1-yl)-3-oxopropanenitrile trifluoroacetate]	>10
((1R,2R,4S)-2-Hydroxy-4-{2-[(1R)-1-hydroxyethyl]-1H-imidazo[4,5-d]thieno[3,2-b]pyridin-1-yl}cyclohexyl)acetonitrile and ((1S,2S,4R)-2-hydroxy-4-{2-[(1R)-1-hydroxyethyl]-1H-imidazo[4,5-d]thieno[3,2-b]pyridin-1-yl}cyclohexyl)acetonitrile [36 (second peak)]	>10
CN1CC(c2nc3cnc4ccsc4c3n2[C@H]2CC[C@H](CC#N)CC2)C1 [Example 29, {trans-4-[2-(1-Methylazetidin-3-yl)-1H-imidazo[4,5-d]thieno[3,2-b]pyridin-1-yl]cyclohexyl}acetonitrile]	>9
CCOC(=O)N1CCC[C@H](n2c([C@@H](C)O)nc3cnc4ccsc4c32)C1 [Example 50, Ethyl (3S)-3-{2-[(1R)-1-hydroxyethyl]-1H-imidazo[4,5-d]thieno[3,2-b]pyridin-1-yl}piperidine-1-carboxylate]	>10
CC(C)OC(=O)NC[C@H]1CC[C@H](n2c([C@@H](C)O)nc3cnc4ccsc4c32)CC1 [Example 84, Isopropyl [(trans-4-{2-[(1R)-1-hydroxyethyl]-1H-imidazo[4,5-d]thieno[3,2-b]pyridin-1-yl}cyclohexyl)methyl]carbamate]	>10

Other lines, results leading:

JAK2/JAK1	Compound
>10	C[C@@H](O)c1nc2cnc3ccsc3c2n1[C@H]1CCN(CCC#N)C1 [Example 62, 3-((3S)-3-{2-[(1R)-1-Hydroxyethyl]-1H-imidazo[4,5-d]thieno[3,2-b]pyridin-1-yl}pyrrolidin-1-yl)propanenitrile]
>10	C[C@@H](O)c1nc2cnc3ccsc3c2n1[C@H]1CC[C@@H](CC#N)C1.O=C(O)C(F)(F)F [Example 49, ((1R,3S)-3-{2-[(1R)-1-Hydroxyethyl]-1H-imidazo[4,5-d]thieno[3,2-b]pyridin-1-yl}cyclopentyl)acetonitrile trifluoroacetate]
>10	C[C@@H](O)c1nc2cnc3ccsc3c2n1C1CCN(CCC#N)CC1 [Example 16, 3-(4-{2-[(1R)-1-Hydroxyethyl]-1H-imidazo[4,5-d]thieno[3,2-b]pyridin-1-yl}piperidin-1-yl)propanenitrile]
>10	CC(C)OC(=O)NC[C@H]1CC[C@H](n2c([C@@H](C)O)nc3cnc4ccsc4c32)CO1 [Example 76, Isopropyl [((2R,5S)-5-{2-[(1R)-1-hydroxyethyl]-1H-imidazo[4,5-d]thieno[3,2-b]pyridin-1-yl}tetrahydro-2H-pyran-2-yl)methyl]carbamate]
>10	C[C@@H](O)c1nc2cnc3ccsc3c2n1[C@H]1CCCN(C(=O)CCC#N)C1 [Example 58, 4-((3S)-3-{2-[(1R)-1-Hydroxyethyl]-1H-imidazo[4,5-d]thieno[3,2-b]pyridin-1-yl}piperidin-1-yl)-4-oxobutanenitrile]
>10	C[C@@H](O)c1nc2cnc3ccsc3c2n1C1CCCCC1 [Example 13, (1R)-1-(1-Cyclohexyl-1H-imidazo[4,5-d]thieno[3,2-b]pyridin-2-yl)ethanol]
>10	N#CCc1nc2cnc3ccsc3c2n1[C@H]1CC[C@H](CC#N)OC1 [Example 73, {(2R,5S)-5-[2-(Cyanomethyl)-1H-imidazo[4,5-d]thieno[3,2-b]pyridin-1-yl]tetrahydro-2H-pyran-2-yl}acetonitrile]
>10	C[C@@H](O)c1nc2cnc3ccsc3c2n1[C@H]1CCCN(CCC#N)C1 [Example 56, 3-((3S)-3-{2-[(1R)-1-Hydroxyethyl]-1H-imidazo[4,5-d]thieno[3,2-b]pyridin-1-yl}piperidin-1-yl)propanenitrile]
>10	N#CCc1nc2cnc3ccsc3c2n1[C@H]1CC[C@@H](CC#N)OC1 [Example 74, {(2S,5S)-5-[2-(Cyanomethyl)-1H-imidazo[4,5-d]thieno[3,2-b]pyridin-1-yl]tetrahydro-2H-pyran-2-yl}acetonitrile]
>10	N#CC[C@H]1CC[C@H](n2c(CO)nc3cnc4ccsc4c32)CO1 [Example 91, {(2R,5S)-5-[2-(Hydroxymethyl)-1H-imidazo[4,5-d]thieno[3,2-b]pyridin-1-yl]tetrahydro-2H-pyran-2-yl}acetonitrile]
>10	N#CC[C@H]1CC[C@H](n2c(C3CC3)nc3cnc4ccsc4c32)CO1 [Example 43, [(2R,5S)-5-(2-Cyclopropyl-1H-imidazo[4,5-d]thieno[3,2-b]pyridin-1-yl)tetrahydro-2H-pyran-2-yl]acetonitrile]
>10	C[C@@H](O)c1nc2cnc3ccsc3c2n1[C@H]1CC[C@H](NCC(F)(F)F)CC1 [Example 4, (1R)-1-(1-{trans-4-[(2,2,2-Trifluoroethyl)amino]cyclohexyl}-1H-imidazo[4,5-d]thieno[3,2-b]pyridin-2-yl)ethanol]
>10	C[C@@H](O)c1nc2cnc3ccsc3c2n1[C@H]1CC[C@H](CCC#N)CC1 [Example 8, 3-(trans-4-{2-[(1R)-1-Hydroxyethyl]-1H-imidazo[4,5-d]thieno[3,2-b]pyridin-1-yl}cyclohexyl)propanenitrile]
>10	CCOC(=O)NC[C@H]1CC[C@H](n2c([C@@H](C)O)nc3cnc4ccsc4c32)CC1 [Example 82, Ethyl [(trans-4-{2-[(1R)-1-hydroxyethyl]-1H-imidazo[4,5-d]thieno[3,2-b]pyridin-1-yl}cyclohexyl)methyl]carbamate]
>10	CNC(C)c1nc2cnc3ccsc3c2n1[C@H]1CC[C@H](CC#N)OC1 (stereo partly drawn) [Example 70, ((2R,5S)-5-{2-[1-(Methylamino)ethyl]-1H-imidazo[4,5-d]thieno[3,2-b]pyridin-1-yl}tetrahydro-2H-pyran-2-yl)acetonitrile]
>10	N#CC[C@H]1CC[C@H](n2c(CO)nc3cnc4ccsc4c32)CC1 [Example 17, {trans-4-[2-(Hydroxymethyl)-1H-imidazo[4,5-d]thieno[3,2-b]pyridin-1-yl]cyclohexyl}acetonitrile]
>10	C[C@@H](O)c1nc2cnc3ccsc3c2n1[C@H]1CCN(CCCC#N)C1 [Example 65, 4-((3S)-3-{2-[(1R)-1-Hydroxyethyl]-1H-imidazo[4,5-d]thieno[3,2-b]pyridin-1-yl}pyrrolidin-1-yl)butanenitrile]

molecular target: human JAK1 (Homo sapiens, UniProt P23458); test: as above; assay type: biochemical; details: 1 mM ATP
Procedure: as §1

IC50 [nM]	Compound
≤ 100	Cc1nn2cnc3ccsc3c2c1-c1ccc(CC#N)cc1 [Example 46, [4-(8-Methylpyrazolo[1,5-c]thieno[2,3-e]pyrimidin-9-yl)phenyl]acetonitrile]

molecular target: human JAK2 (Homo sapiens (Human), UniProt O60674); test: In vitro JAK kinase assay (HTRF, phosphorylation of biotinylated peptide), JAK2; assay type: biochemical; details: 1 mM ATP
Procedure: as §1

human JAK2, sequence (O60674 828-1132): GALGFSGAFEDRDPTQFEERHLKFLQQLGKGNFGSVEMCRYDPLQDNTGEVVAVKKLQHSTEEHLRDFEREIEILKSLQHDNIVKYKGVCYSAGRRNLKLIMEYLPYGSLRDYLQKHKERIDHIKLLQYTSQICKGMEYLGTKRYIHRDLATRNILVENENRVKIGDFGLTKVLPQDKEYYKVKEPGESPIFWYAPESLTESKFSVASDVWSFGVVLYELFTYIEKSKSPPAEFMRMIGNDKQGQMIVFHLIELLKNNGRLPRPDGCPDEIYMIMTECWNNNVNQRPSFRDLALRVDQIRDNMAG

IC50 [nM]	Compound
≤ 1000	Cc1nn2cnc3ccsc3c2c1-c1ccc(CC#N)cc1 [Example 46, [4-(8-Methylpyrazolo[1,5-c]thieno[2,3-e]pyrimidin-9-yl)phenyl]acetonitrile]
